In patent US6350757B1, “Beta-carboline compounds” (Les Laboratoires Servier, priority 1999, dated 2002):

Tests used:
5-HT2C receptors = target: T1, 5-HT2C receptors (Rattus norvegicus, UniProt P08909); experiment: Penile erection test in the rat, erection induced by Ro 60-0175; format: in vivo; conditions: for ED50: rat, sc, read-out: ID50 (inhibitory dose50) for inhibition of penile erections induced by Ro 60-0175
T1 construct: Male rats of the Wistar line (Iffa-Credo, France); from tissue; host or cells: whole animal: male Wistar rat (in vivo)
T1 sequence (P08909 33-460): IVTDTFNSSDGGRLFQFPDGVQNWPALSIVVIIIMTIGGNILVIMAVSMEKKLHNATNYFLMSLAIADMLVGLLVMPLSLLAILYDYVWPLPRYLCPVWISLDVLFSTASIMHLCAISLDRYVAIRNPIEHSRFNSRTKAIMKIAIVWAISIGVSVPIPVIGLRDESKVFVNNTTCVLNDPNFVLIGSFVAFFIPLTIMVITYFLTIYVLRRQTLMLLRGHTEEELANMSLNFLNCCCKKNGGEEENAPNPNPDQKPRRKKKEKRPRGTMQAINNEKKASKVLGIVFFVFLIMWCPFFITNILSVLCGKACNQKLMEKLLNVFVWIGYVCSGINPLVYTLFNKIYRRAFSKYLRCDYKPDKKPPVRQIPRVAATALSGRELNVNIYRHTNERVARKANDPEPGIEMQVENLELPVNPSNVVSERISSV
Protocol: Penile Erection Test in the Rat, with Erection Induced by Ro 60-0175 (1.25 mg/kg, s.c.)
This test (Eur. J. Pharma., 1997, 325, 9-12) enables evaluation of the capacity of pharmacological agents to inhibit penile erections induced by the administration of Ro 60-0175, a selective 5-HT2C agonist. Inhibition is thus predictive of an antagonist activity in respect of 5-HT2C receptors. Male rats of the Wistar line (Iffa-Credo, France), weighing 120-140 g on the day of the experiment, are placed individually into plexiglass observation boxes (7.5×18×30 cm) having just been administered the product or its carrier. Thirty minutes later, the animals are administered Ro 60-0175 (1.25 mg/kg, s.c.) and the number of erections achieved in the course of the following 30 minutes is counted.

melting point [°C]	SMILES	ED50 (5-HT2C receptors) [mg/kg]	further results
	CCOC(=O)C1(C2NCCc3c2[nH]c2ccc(OC)cc32)CCC1.Cl (stereo not drawn) [Example 7, Ethyl 1-(6-methoxy-2,3,4,9-tetrahydro-1H-β-carbolin-1-yl)cyclobutanecarboxylate Hydrochloride]	1.1	
	CCOC(=O)C1(C2NCCc3c2[nH]c2cc(Cl)c(Cl)cc32)CCC1.Cl (stereo not drawn) [Example 6, Ethyl 1-(6,7-dichloro-2,3,4,9-tetrahydro-1H-β-carbolin-1-yl)cyclobutanecarboxylate Hydrochloride]	0.9	
232 to 233	COC(=O)C1(C2NCCc3c2[nH]c2ccc(Cl)cc32)CCC1.Cl (stereo not drawn)		
	CCOC(=O)C1(C2NCCc3c2[nH]c2ccc(Cl)c(Cl)c32)CCC1.Cl (stereo not drawn) [Example 18, Ethyl 1-(5,6-dichloro-2,3,4,9-tetrahydro-1H-β-carbolin-1-yl)cylobutanecarboxylate Hydrochloride]		ID50 (inhibitory dose50) for inhibition of penile erections induced by Ro 60-0175 (5-HT2C receptors; s.c., male Wistar rats, product given 30 min before Ro 60-0175 (1.25 mg/kg, s.c.), erections counted over following 30 min): 0.5 mg/kg
218 to 219	CCOC(=O)C1(C2c3[nH]c4ccc(Cl)cc4c3CCN2C(C)=O)CCC1 (stereo not drawn) [Example 79, Ethyl 1-(2-acetyl-6-chloro-2,3,4,9-tetrahydro-1H-β-carbolin-1-yl)cyclobutanecarboxylate]		
	CCOC(=O)C1(C2NCCc3c2[nH]c2ccc(Cl)cc32)CCC1.Cl (stereo not drawn) [Example 1, Ethyl 1-(6-chloro-2,3,4,9-tetrahydro-1H-β-carbolin-1-yl)cyclobutanecarboxylate Hydrochloride]	0.9	
